Patent US20190358974A1, “COMPOSITIONS AND PARTICLES CONTAINING CELLULOSIC FIBERS AND STABILIZED- AND/OR ACTIVATED- UREASE INHIBITORS, AS WELL AS METHODS OF MAKING AND USING THE SAME” (INTERNATIONAL PAPER COMPANY, priority 2016, published 2019)

Key:
[1] = tested on: Proteus mirabilis ATCC #7002; experiment: Bacterial ammonia test: NH3 in headspace over fluff/SAP pad inoculated with bacteria in synthetic urine; format: cell-based; conditions: 400 ppm PPDA inside cellulosic pulp, stored dry at ambient conditions, 20 weeks
Excerpt: Test Pad Sample Preparation • 1. Place a non-woven carrier on the 50 mm diameter SCAN pad former screen, attach tube, tare, and place on SCAN test piece former. • 2. Weigh out 0.60 gm fiberized pulp. Fibers should be “fluffy”, well dispersed, and spread evenly in the weighing pan. • 3. Sprinkle 0.40 gm SAP evenly over the fiber. • 4. Start the vacuum and feed the SAP/fiber into the forming cone through the feed tube, ensuring that both materials are simultaneously introduced. • 5. Remove the pad assembly from the former and weigh. Lightly compress the pad and remove the tube. • 6. Lift the non-woven carrier with the pad off of the screen. • 7. Press to ˜3 mm • 8. Seal pad wrapped in non-woven in a plastic ziplok bag until testing.
This is the Test Inoculum Solution.
At the end of the designated exposure period, the ammonia in the headspace of the sealed jar is measured using the Drager system. The sampling end of the Drager tube is fitted with a needle which is inserted through the septum. A vent needle is inserted to allow withdrawal of the gaseous sample. The opposite end of the measuring tube is attached to the Drager pump. Ammonia is withdrawn according to the manufacturer specifications for the tube and the measurement recorded.
The PPDA treated pulp was then shredded by a lab hammermill to convert into fluff fibers. […]

[2] = Aging/degradation of PPDA on dry pulp, PPDA remaining tested by HPLC; format: physicochemical; conditions: 400 ppm PPDA on pulp stored on shelf as dry pulp, ambient conditions
Method: Bleached softwood pulp sheets were treated (sprayed) respectively with: 1) 400 ppm PPDA on pulp from water solution; 2) 400 ppm PPDA on pulp from PEG-200 solution; 3) 400 ppm PPDA on pulp from solution of 90% PEG-200 and 10% Talc powder. All the samples were dried on a dryer can at 195 F. They were then stored under room temperature (23 C) and 50% humidity chamber. The PPDA content remaining in the dry pulp samples was tested by HPLC.
They were then put into a controlled chamber with temperature of 55 C and 50% relative humidity. The PPDA content remaining in the dry pulp samples was tested by HPLC.
Accelerated aging study was done at 35 C and 50% RH with individual sheets thoroughly exposed to the environment. The control PPDA doses were 400 ppm and 1000 ppm based on the weight of the sheet, applied with water solution and dried. And the stabilized PPDA doses were also at 400 ppm and 1000 ppm on sheet, applied with 2% PPDA solution in PEG-200. The results are shown in the table below, and plotted in FIG. 4.
Aging test was also conducted on-shelf in the bag at room conditions. The result was shown in Table 12, and plotted in FIG. 5 in log scale.

[3] = cited from earlier work

## NP(N)(=O)Oc1ccccc1 [PPDA, phenylphosphorodiamidate]
[1]
  effectiveness against ammonia generation: lost all its effectiveness against ammonia generation
[2]
  stability inside cellulosic pulp: not stable
[3]; dry
  stability of dry PPDA: stable
[3]; in water
  stability in water: not stable
